# Experimental data as given in patent US12145923B2, “Tetrahydroisoquinoline compound, preparation method therefor, pharmaceutical composition containing same, and use thereof” (SHANGHAI INSTITUTE OF MATERIA MEDICA, CHINESE ACADEMY OF …, priority 2018, dated 2024).
# “And” between values parts separate entries of the source, which are not always exact repeats. Identical values can stand only once. Like-named read-outs stand apart in the source and are kept apart here.
# Columns and labels:
# [1] = tested on: RAW 264.7 cells; test: Cytotoxicity on RAW 264.7 cells (CCK-8 method); type: cell-based, mouse
# [2] = tested on: acute inflammation model of mouse back air sac; test: Acute inflammation model of mouse back air sac (carrageenan); type: in vivo; conditions: oral gavage 5 mg/kg
# Procedure: On the first day of the experiment, mice were subcutaneously injected with 3 ml of air on the back, and subcutaneously injected with 1.5 ml of air on the back on day 3, and subcutaneously injected with 1 ml of 2% carrageenan (Sigma-Aldrich, St. Louis, MO, USA) on the back on day 6 for sensitization. 4 hours after sensitization, secretion in the air sac was lavaged with phosphate buffer solution. The lavage fluid was used for white blood cell count and inflammatory factor detection. […] Tumor necrosis factor-α and interleukin-6 detection kits were purchased from BD Pharmingen (San Diego, CA, USA).
# [3] = Cytotoxicity on RAW 264.7 cells (CCK-8 method); type: cell-based, mouse; conditions: mouse, RAW 264.7 cells; drug concentration required to cause median cytotoxicity, RAW 264.7
# [4] = Rat pharmacokinetic test; type: in vivo
# Procedure: Six male healthy rats weighing 150-200 g were randomly divided into 2 groups (n=3). Compounds 14, 16, 17, 18, 22 and 29 of the present invention were administered by gavage and intravenous injection, respectively, at a administration volume of 10 mL/kg. The drug was formulated with DMSO/Tween 80/saline solution (5:5:90, v/v/v). The rats were fasted for 12 h before testing, water ad lib, and uniformly feeded 2 h after administration.
# gavage administration: 0.25, 0.5, 1.0, 2.0, 4.0, 6.0, 8.0 and 24 h after administration:
# intravenous administration: 5 min, 0.25, 0.5, 1.0, 2.0, 4.0, 6.0, 8.0 and 24 h after administration;
# 0.3 mL of venous blood was collected at the above time points via the rat eye vein venous plexus, placed in heparinized test tube, centrifuged at 11000 rpm for 5 min. Plasma was separated and frozed in a −20° C. refrigerator.
# The concentration of compounds in rat plasma was determined by LC/MS/MS. The pharmacokinetic parameters after administration were calculated by a non-compartmental model of DAS 3.0 software.
# [5] = target: Human PDE4D catalytic domain (Homo sapiens (Human), UniProt Q08499); test: Scintillation Proximity Assay (SPA), inhibition of PDE4D catalytic domain activity; type: biochemical; conditions: for inhibition at 1 µM: read-out: PDE4D enzyme activity inhibition rate %
# Chain of Human PDE4D catalytic domain (Q08499 386-715): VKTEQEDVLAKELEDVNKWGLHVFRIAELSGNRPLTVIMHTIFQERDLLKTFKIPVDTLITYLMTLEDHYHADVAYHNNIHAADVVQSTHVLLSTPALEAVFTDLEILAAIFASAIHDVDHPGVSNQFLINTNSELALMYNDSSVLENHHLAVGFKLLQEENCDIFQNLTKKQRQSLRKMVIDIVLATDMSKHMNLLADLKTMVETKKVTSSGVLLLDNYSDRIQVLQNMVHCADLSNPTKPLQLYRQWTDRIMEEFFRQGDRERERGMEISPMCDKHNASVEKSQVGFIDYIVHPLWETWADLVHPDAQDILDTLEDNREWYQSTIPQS
# Procedure: The scintillation Proximity Assay (SPA) method was used to determine the inhibitory effect of compounds on the activity of PDE4D catalytic domain. Human PDE4D catalytic domain protein was obtained by expression and purification in E. coli. […] [^3H]-cAMP, scintillation beads (RPNQO150, Perkin Elmer), and 96-well scintillation microplates (Isoplate-96, Perkin Elmer) were purchased from Perkin Elmer Company.
# Finally, 10 μl [^3H]-cAMP (0.005 μCi/μl) was added and incubated for 30 min at 30° C. in a water bath. 50 μl SPA beads was added to quench the reaction, shaked appropriately, and stood for 20 minutes. A microplate scintillation counter was used.
# [6] = tested on: TNF-α secretion in PBMC; test: Inhibition of LPS-stimulated TNF-α secretion in PBMC (ELISA); type: cell-based; conditions: Homo sapiens; for inhibition at 10 µM / inhibition at 1 µM: read-out: Inhibition rate %
# [7] = tested on: tumor necrosis factor-α secretion in RAW 264.7 cells; test: Inhibition of LPS-stimulated tumor necrosis factor-α secretion in RAW 264.7 cells (ELISA); type: cell-based, mouse; conditions: Mus musculus; for inhibition at 0.5 µM / inhibition at 5 µM / inhibition at 50 µM: RAW264.7, 4 h, read-out: Tumor necrosis factor-α inhibition rate/%
# Procedure: After the activation by bacterial lipopolysaccharide (LPS), various inflammatory mediators such as tumor necrosis factor-α will be released; Phosphodiesterase PDE4 is also expressed in macrophages, and the inhibitory activity of the compound on phosphodiesterase PDE4 can be reflected by detecting the secretion of tumor necrosis factor-α.
# Under the stimulation of 1 μg/ml LPS (L5886, Sigma, St. Louis, MO, USA), the cells were cultured in a 37° C., 5% CO2 incubator for 4 h. The background control with no stimulant and stimulation control wells were also set, with a total volume of 200 μl. The culture supernatant was collected by centrifugation, and the secretion level of tumor necrosis factor-α in the culture supernatant was detected by enzyme-linked immunosorbent assay. The tumor necrosis factor-α detection kit was purchased from BD Pharmingen (San Diego, CA, USA).
# [8] = male, plasma, intravenous injection, 10 mg/kg
# [9] = male, plasma, po, gavage, 20 mg/kg
# [10] = PDE4D, unit given as mM, read-out: IC50
inhibition at 1 µM ([5]; Compound concentration: 1 μM),Structure (SMILES),"Cell survival rate/% ([1]; RAW 264.7, 0.5 μM)","Cell survival rate/% ([1]; RAW 264.7, 5 μM)","Cell survival rate/% ([1]; RAW 264.7, 50 μM)",CC50 at 4 h [3],"inhibition at 10 µM ([6]; TNF-α secretion in PBMC, 10 μM)","inhibition at 0.5 µM ([7]; RAW 264.7, 0.5 μM)","inhibition at 5 µM ([7]; RAW 264.7, 5 μM)","inhibition at 50 µM ([7]; RAW 264.7, 50 μM)",also measured
10.8%,"COc1cc2c(cc1OCc1ccccc1)C(CCc1c[nH]c3ccccc13)N(C=O)CC2 (stereo not shown) [Compound A5, 1-(2-(1H-indol-3-yl)ethyl)-7-(benzyloxy)-6-methoxy-3,4-dihydroisoquinoline-2(1H)-formaldehyde]",118.7%,120.8%,111.3%,–,23.8%,-0.2%,-8.1%,79.3%,–
19.2%,"COc1cc2c(cc1OC1CCCC1)C(CCc1c[nH]c3ccccc13)N(C=O)CC2 (stereo not shown) [Compound A2, 1-(2-(1H-indol-3-yl)ethyl)-7-(cyclopentyloxy)-6-metthoxy-3,4-dihydroisoquinoline-2(1H)-formaldehyde]",111.6%,113%,55.1%,–,43%,9.7%,-4.4%,99.4%,"IC50 [5, 10]: 0.00299 mM"
21.5%,"COc1cc2c(cc1OC1CCCC1)C(CCc1c[nH]c3ccc(C)cc13)N(C=O)CC2 (stereo not shown) [Compound C2, 7-(cyclopentyloxy)-6-methoxy-1-(2-(5-methyl-1H-indol-3-yl)ethyl)-3,4-dihydroisoquinoline-2(1H)-formaldehyde]",112.4%,106.3%,62.7%,–,52.4%,-18.2%,-24.5%,97.2%,"inhibition at 1 µM ([6]; TNF-α secretion in PBMC, 1 μM): 15.8%"
82.6%,"COCC(=O)N1CCc2cc(OC)c(OC)cc2C1CCc1c[nH]c2ccccc12 (stereo not shown) [Compound B4, 1-(1-(2-(1H-indol-3-yl)ethyl)-6,7-dimethoxy-3,4-dihydroisoquinoline-2(1H)-yl)-2-methoxyethane-1-one]",116.6%,82.7%,71.5%,–,89.1%,-9.2%,-11%,54.5%,"IC50 [5, 10]: 0.0003 mM; inhibition at 1 µM ([6]; TNF-α secretion in PBMC, 1 μM): 44.1%; IC50 ([6]; TNF-α secretion in PBMC, read-out: IC50): 8.02 µM"

# Continued, compound first:
Structure (SMILES),inhibition at 1 µM ([5]; Compound concentration: 1 μM),"Cell survival rate/% ([1]; RAW 264.7, 0.5 μM)","Cell survival rate/% ([1]; RAW 264.7, 5 μM)","Cell survival rate/% ([1]; RAW 264.7, 50 μM)",CC50 at 4 h [3],"inhibition at 10 µM ([6]; TNF-α secretion in PBMC, 10 μM)","inhibition at 0.5 µM ([7]; RAW 264.7, 0.5 μM)","inhibition at 5 µM ([7]; RAW 264.7, 5 μM)","inhibition at 50 µM ([7]; RAW 264.7, 50 μM)",also measured
"COc1cc2c(cc1OC)[C@H](CCc1c[nH]c3cc(C)ccc13)N(C=O)CC2 [(S)-C5, (S)-6,7-dimethoxy-1-(2-(6-methyl-1H-indol-3-yl)ethyl)-3,4-dihydroisoquinoline-2(1H)-formaldehyde]",–,98%,109.4%,93.4%,–,–,–,–,–,secretion level of interleukin-6 in lavage [2]: reduce; secretion level of tumor necrosis factor-α in lavage [2]: reduce; inflammatory response ([2]; 24 h and 1 h before sensitization): significantly reduce
"CCOc1cc2c(cc1OC)CCN(C=O)[C@H]2CCc1c[nH]c2cc(C)ccc12 [(S)-C7, (S)-7-ethoxy-6-methoxy-1-(2-(6-methyl-1H-indol-3-yl)ethyl)-3,4-dihydroisoquinoline-2(1H)-formaldehyde]",–,71.3%,93.4%,96.1%,> 50 µM,–,–,–,–,"AUC0-t ([4]; gavage, 20 mg/kg): 9232.3 ng·h/mL; AUC0-t ([4]; intravenous injection, 10 mg/kg): 6761.8 ng·h/mL; AUC(0-inf) [4, 8]: 6760 ng·h/mL; MRT [4, 8]: 0.9 h; half-life [4, 8]: 0.2 h; Vd ([4]; male, plasma, intravenous injection, 10 mg/kg, read-out: Vss): 0.53 L/kg; AUC0-t ([4]; male, plasma, iv, 10 mg/kg, intravenous injection, 10 mg/kg, read-out: AUC0-t): 6760 ng·h/mL; bioavailability ([4]; male, plasma, oral, gavage 20 mg/kg vs intravenous 10 mg/kg, dosage standardized, read-out: F (absolute bioavailability)): 68.3%; Cmax ([4]; male, plasma, po, 20 mg/kg, gavage): 2380 ng/mL; AUC0-t ([4]; male, plasma, po, 20 mg/kg, gavage, 20 mg/kg, read-out: AUC0-t): 9230 ng·h/mL; AUC(0-inf) [4, 9]: 9230 ng·h/mL; MRT [4, 9]: 2.6 h; Tmax [4, 9]: 1 h; half-life [4, 9]: 1 h"
"COc1cc2c(cc1OC)[C@H](CCc1c[nH]c3ccccc13)N(C=O)CC2 [(S)-A1, (S)-1-(2-(1H-indol-3-yl)ethyl)-6,7-dimethoxy-3,4-dihydroisoquinoline-2(1H)-formaldehyde]",–,112.3% and 103%,126.4% and 100.2%,88.8% and 102%,> 50 µM,–,–,–,–,–
"COc1cc2c(cc1OC)[C@H](CCc1c[nH]c3cc(F)ccc13)N(C=O)CC2 [(S)-C6, (S)-1-(2-(6-fluoro-1H-indol-3-yl)ethyl)-6,7-dimethoxy-3,4-dihydroisoquinoline-2(1H)-formaldehyde]",–,108.6%,118.4%,93.7%,> 50 µM,–,–,–,–,–
"CCOc1cc([C@@H](CS(C)(=O)=O)N2C(=O)c3cccc(NC(C)=O)c3C2=O)ccc1OC [Apremilast, reference compound]",–,–,–,–,> 10 µM,–,–,–,–,"IC50 ([7]; RAW264.7, RAW 264.7): 4.2 µM"
"COc1cc2c(cc1OC1CCCC1)C(CCc1c[nH]c3ccc(Br)cc13)N(C=O)CC2 (stereo not shown) [Compound C1, 1-(2-(5-bromo-1H-indol-3-yl)ethyl)-7-(cyclopentyloxy)-6-methoxy-3,4-dihydroisoquinoline-2(1H)-formaldehyde]",–,100.9%,125.1%,110.5%,–,–,–,–,–,IC50 [5]: 0.0015 mM; inhibition at 1 µM [5]: 26.4%; inhibition at 1 µM ([6]; PBMC): 27.1%; inhibition at 10 µM ([6]; PBMC): 72.4%; inhibition at 0.5 µM [7]: 2.8%; inhibition at 5 µM [7]: -5.2%; inhibition at 50 µM [7]: 33.7%
"CCOc1cc2c(cc1OC)CCN(C(=O)COC)[C@H]2CCc1c[nH]c2ccccc12 [(S)-B12, (S)-1-(1-(2-(1H-indol-3-yl)ethyl)-7-ethoxy-6-methoxy-3,4-dihydroisoquinoline-2(1H)-yl)-2-methoxyethane-1-one]",92.2%,83.8%,95.3%,75.2%,–,80.7%,-12.7%,6.8%,52.4%,"IC50 [5, 10]: 0.00025 mM; inhibition at 1 µM ([6]; TNF-α secretion in PBMC, 1 μM): 44.2%"
